Test results as given in patent US12077503B2, “Substituted cyclic amides and their use as herbicides” (FMC CORPORATION, priority 2015, dated 2024).

How the values were obtained:
Type in all cases: in vivo
corn (Zea mays) [1] = assay: Test G Pre-Emergence Protocol; settings: Zea mays, pre-emergence, 312 h, evaluated after 13 days; for plant injury at 15.625 g/ha: 15.625 g ai/ha; for plant injury at 15.625 g/ha / plant injury at 250 g/ha: read-out: Corn damage rating (100=total damage to plant; 0=no damage to plant); for plant injury at 62.5 g/ha: 62.5 g ai/ha, 100=total damage to plant, 0=no damage to plant, read-out: Corn damage rating; for plant injury at 250 g/ha: 250 g ai/ha
Summary of the method: (§1)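 Glasshouse pre-emergence test: soil-sown seeds, sprayed after 1 d at 15.625, 62.5 or 250 g/ha. Conditions 24/16° C day/night, 14 h light, 65% humidity, watering twice daily. Rating 13 d post-spray (100 = total damage).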

[2] = tested on: ivy-leaved morning glory (Ipomoea hederacea); assay: Test G Pre-Emergence Protocol; settings: Ipomoea, pre-emergence, 312 h, evaluated after 13 days; for pest or weed control at 15.625 g/ha: 15.625 g ai/ha; for pest or weed control at 15.625 g/ha / pest or weed control at 250 g/ha: read-out: Morningglory, Ivy-leaved damage rating (100=total damage to plant; 0=no damage to plant); for pest or weed control at 62.5 g/ha: 62.5 g ai/ha, 100=total damage to plant, 0=no damage to plant, read-out: Morningglory, Ivy-leaved damage rating; for pest or weed control at 250 g/ha: 250 g ai/ha
Summary of the method: as §1

[3] = tested on: barnyardgrass (Echinochloa crus-galli); assay: Test G Pre-Emergence Protocol; settings: Echinochloa crus-galli, pre-emergence, 312 h, evaluated after 13 days; for pest or weed control at 15.625 g/ha: 15.625 g ai/ha; for pest or weed control at 15.625 g/ha / pest or weed control at 250 g/ha: read-out: Barnyardgrass damage rating (100=total damage to plant; 0=no damage to plant); for pest or weed control at 62.5 g/ha: 62.5 g ai/ha, 100=total damage to plant, 0=no damage to plant, read-out: Barnyardgrass damage rating; for pest or weed control at 250 g/ha: 250 g ai/ha
Summary of the method: as §1

[4] = tested on: velvetleaf (Abutilon theophrasti); assay: Test G Pre-Emergence Protocol; settings: Abutilon theophrasti, pre-emergence, 312 h, evaluated after 13 days; for pest or weed control at 15.625 g/ha: 15.625 g ai/ha; for pest or weed control at 15.625 g/ha / pest or weed control at 250 g/ha: read-out: Velvetleaf damage rating (100=total damage to plant; 0=no damage to plant); for pest or weed control at 62.5 g/ha: 62.5 g ai/ha, 100=total damage to plant, 0=no damage to plant, read-out: Velvetleaf damage rating; for pest or weed control at 250 g/ha: 250 g ai/ha
Summary of the method: as §1

[5] = tested on: giant foxtail (Setaria faberi); assay: Test G Pre-Emergence Protocol; settings: Setaria faberi, pre-emergence, 312 h, evaluated after 13 days; for pest or weed control at 15.625 g/ha: 15.625 g ai/ha; for pest or weed control at 15.625 g/ha / pest or weed control at 250 g/ha: read-out: Foxtail, Giant damage rating (100=total damage to plant; 0=no damage to plant); for pest or weed control at 62.5 g/ha: 62.5 g ai/ha, 100=total damage to plant, 0=no damage to plant, read-out: Foxtail, Giant damage rating; for pest or weed control at 250 g/ha: 250 g ai/ha
Summary of the method: as §1

[6] = tested on: redroot pigweed (Amaranthus retroflexus); assay: Test G Pre-Emergence Protocol; settings: Amaranthus retroflexus, pre-emergence, 312 h, evaluated after 13 days; for pest or weed control at 15.625 g/ha: 15.625 g ai/ha; for pest or weed control at 15.625 g/ha / pest or weed control at 250 g/ha: read-out: Pigweed, Redroot damage rating (100=total damage to plant; 0=no damage to plant); for pest or weed control at 62.5 g/ha: 62.5 g ai/ha, 100=total damage to plant, 0=no damage to plant, read-out: Pigweed, Redroot damage rating; for pest or weed control at 250 g/ha: 250 g ai/ha
Summary of the method: as §1

corn (Zea mays) [7] = assay: Test G Post-Emergence Protocol; settings: Zea mays, post-emergence, 312 h, read-out: Corn damage rating; for plant injury at 15.625 g/ha: 15.625 g ai/ha, evaluated after 13 days (100=total damage to plant; 0=no damage to plant); for plant injury at 62.5 g/ha: 62.5 g ai/ha; for plant injury at 62.5 g/ha / plant injury at 250 g/ha: evaluated after 13 days, 100=total damage to plant, 0=no damage to plant; for plant injury at 250 g/ha: 250 g ai/ha
Summary of the method: (§2)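 Pot-grown seedlings, 8 days old, raised in a glasshouse at 24/16 °C day/night with 14 h light and 65% humidity, were sprayed post-emergence with test compound in acetone/water (50:50) plus 0.5% Tween 20 at 15.625, 62.5 or 250 g/ha. Damage was scored visually 13 days later on a 0–100 scale (100 = total damage).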

[8] = tested on: ivy-leaved morning glory (Ipomoea hederacea); assay: Test G Post-Emergence Protocol; settings: Ipomoea, post-emergence, 312 h, read-out: Morningglory, Ivy-leaved damage rating; for pest or weed control at 15.625 g/ha: 15.625 g ai/ha, evaluated after 13 days (100=total damage to plant; 0=no damage to plant); for pest or weed control at 62.5 g/ha: 62.5 g ai/ha; for pest or weed control at 62.5 g/ha / pest or weed control at 250 g/ha: evaluated after 13 days, 100=total damage to plant, 0=no damage to plant; for pest or weed control at 250 g/ha: 250 g ai/ha
Summary of the method: as §2

[9] = tested on: barnyardgrass (Echinochloa crus-galli); assay: Test G Post-Emergence Protocol; settings: Echinochloa crus-galli, post-emergence, 312 h, read-out: Barnyardgrass damage rating; for pest or weed control at 15.625 g/ha: 15.625 g ai/ha, evaluated after 13 days (100=total damage to plant; 0=no damage to plant); for pest or weed control at 62.5 g/ha: 62.5 g ai/ha; for pest or weed control at 62.5 g/ha / pest or weed control at 250 g/ha: evaluated after 13 days, 100=total damage to plant, 0=no damage to plant; for pest or weed control at 250 g/ha: 250 g ai/ha
Summary of the method: as §2

[10] = tested on: velvetleaf (Abutilon theophrasti); assay: Test G Post-Emergence Protocol; settings: Abutilon theophrasti, post-emergence, 312 h, read-out: Velvetleaf damage rating; for pest or weed control at 15.625 g/ha: 15.625 g ai/ha, evaluated after 13 days (100=total damage to plant; 0=no damage to plant); for pest or weed control at 62.5 g/ha: 62.5 g ai/ha; for pest or weed control at 62.5 g/ha / pest or weed control at 250 g/ha: evaluated after 13 days, 100=total damage to plant, 0=no damage to plant; for pest or weed control at 250 g/ha: 250 g ai/ha
Summary of the method: as §2

[11] = tested on: giant foxtail (Setaria faberi); assay: Test G Post-Emergence Protocol; settings: Setaria faberi, post-emergence, 312 h, read-out: Foxtail, Giant damage rating; for pest or weed control at 15.625 g/ha: 15.625 g ai/ha, evaluated after 13 days (100=total damage to plant; 0=no damage to plant); for pest or weed control at 62.5 g/ha: 62.5 g ai/ha; for pest or weed control at 62.5 g/ha / pest or weed control at 250 g/ha: evaluated after 13 days, 100=total damage to plant, 0=no damage to plant; for pest or weed control at 250 g/ha: 250 g ai/ha
Summary of the method: as §2

[12] = tested on: redroot pigweed (Amaranthus retroflexus); assay: Test G Post-Emergence Protocol; settings: Amaranthus retroflexus, post-emergence, 312 h, read-out: Pigweed, Redroot damage rating; for pest or weed control at 15.625 g/ha: 15.625 g ai/ha, evaluated after 13 days (100=total damage to plant; 0=no damage to plant); for pest or weed control at 62.5 g/ha: 62.5 g ai/ha; for pest or weed control at 62.5 g/ha / pest or weed control at 250 g/ha: evaluated after 13 days, 100=total damage to plant, 0=no damage to plant; for pest or weed control at 250 g/ha: 250 g ai/ha
Summary of the method: as §2

SMILES | plant injury at 15.625 g/ha (corn (Zea mays) [1]) [%] | plant injury at 62.5 g/ha (corn (Zea mays) [1]) [%] | plant injury at 250 g/ha (corn (Zea mays) [1]) [%] | pest or weed control at 15.625 g/ha [2] [%] | pest or weed control at 62.5 g/ha [2] [%] | pest or weed control at 250 g/ha [2] [%] | pest or weed control at 15.625 g/ha [3] [%] | pest or weed control at 62.5 g/ha [3] [%] | pest or weed control at 250 g/ha [3] [%] | pest or weed control at 15.625 g/ha [4] [%] | pest or weed control at 62.5 g/ha [4] [%] | pest or weed control at 250 g/ha [4] [%] | pest or weed control at 15.625 g/ha [5] [%] | pest or weed control at 62.5 g/ha [5] [%] | pest or weed control at 250 g/ha [5] [%] | pest or weed control at 15.625 g/ha [6] [%] | pest or weed control at 62.5 g/ha [6] [%] | pest or weed control at 250 g/ha [6] [%] | plant injury at 15.625 g/ha (corn (Zea mays) [7]) [%] | plant injury at 62.5 g/ha (corn (Zea mays) [7]) [%] | other results
CN1C[C@H](c2ccc(C(F)(F)F)cc2)[C@@H](C(=O)Nc2cccnc2[N+](=O)[O-])C1=O (racemic) [Compound 1824] | 0 | 0 | 0 | 0 | 0 | 0 | 0 | 0 | 70 | 0 | 0 | 0 | 0 | 10 | 80 | 0 | 0 | 20 | 0 | 0 | plant injury at 250 g/ha (corn (Zea mays) [7]): 20%; pest or weed control at 15.625 g/ha [8]: 0%; pest or weed control at 62.5 g/ha [8]: 0%; pest or weed control at 250 g/ha [8]: 10%; pest or weed control at 15.625 g/ha [9]: 0%; pest or weed control at 62.5 g/ha [9]: 0%; pest or weed control at 250 g/ha [9]: 10%; pest or weed control at 15.625 g/ha [10]: 0%; pest or weed control at 62.5 g/ha [10]: 0%; pest or weed control at 250 g/ha [10]: 70%; pest or weed control at 15.625 g/ha [11]: 0%; pest or weed control at 62.5 g/ha [11]: 0%; pest or weed control at 250 g/ha [11]: 10%; pest or weed control at 15.625 g/ha [12]: 0%; pest or weed control at 62.5 g/ha [12]: 0%; pest or weed control at 250 g/ha [12]: 20%
CC(C)Oc1cc(F)cc(C2CN(C)C(=O)C2C(=O)Nc2cccc(F)c2F)c1 (stereo not drawn) [Compound 1724] | 0 | 40 | 90 | 0 | 0 | 0 | 50 | 70 | 90 | 0 | 0 | 0 | 70 | 70 | 90 | 0 | 0 | 0 | 0 | 30 | plant injury at 250 g/ha (corn (Zea mays) [7]): 90%; pest or weed control at 15.625 g/ha [8]: 40%; pest or weed control at 62.5 g/ha [8]: 30%; pest or weed control at 250 g/ha [8]: 70%; pest or weed control at 15.625 g/ha [9]: 40%; pest or weed control at 62.5 g/ha [9]: 70%; pest or weed control at 250 g/ha [9]: 90%; pest or weed control at 15.625 g/ha [10]: 0%; pest or weed control at 62.5 g/ha [10]: 10%; pest or weed control at 250 g/ha [10]: 70%; pest or weed control at 15.625 g/ha [11]: 70%; pest or weed control at 62.5 g/ha [11]: 70%; pest or weed control at 250 g/ha [11]: 90%; pest or weed control at 15.625 g/ha [12]: 0%; pest or weed control at 62.5 g/ha [12]: 10%; pest or weed control at 250 g/ha [12]: 60%
